Results on 40 compounds are retold here after patent US10131675B2 (Genentech, Inc., priority 2015, dated 2018).

By Ki is commonly meant the equilibrium dissociation constant of an inhibitor or competing ligand from its target.

Chain of DLK (Q12852 1-520): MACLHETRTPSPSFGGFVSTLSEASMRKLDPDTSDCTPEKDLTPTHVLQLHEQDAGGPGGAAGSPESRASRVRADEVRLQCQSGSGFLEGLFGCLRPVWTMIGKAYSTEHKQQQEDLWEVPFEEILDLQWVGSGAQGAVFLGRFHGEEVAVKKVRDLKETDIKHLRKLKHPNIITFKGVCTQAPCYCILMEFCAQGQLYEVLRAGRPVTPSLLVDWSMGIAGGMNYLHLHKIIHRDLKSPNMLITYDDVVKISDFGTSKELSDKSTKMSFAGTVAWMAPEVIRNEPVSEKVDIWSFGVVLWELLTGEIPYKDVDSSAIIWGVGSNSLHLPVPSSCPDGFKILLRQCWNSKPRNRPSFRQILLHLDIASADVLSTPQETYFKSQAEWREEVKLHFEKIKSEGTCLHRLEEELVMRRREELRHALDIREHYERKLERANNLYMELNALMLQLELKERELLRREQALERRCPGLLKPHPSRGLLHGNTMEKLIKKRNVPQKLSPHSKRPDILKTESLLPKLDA

This test concerns the target DLK (Homo sapiens (Human), UniProt Q12852). The test is described as follows: DLK TR-FRET Inhibition Assay. It is filed as biochemical. Conditions: N-terminally GST-tagged DLK (catalytic domain amino acid 1-520), MKK4 K131M substrate, 30 μM ATP; read-out: DLK HTRF Ki. A digest of the protocol:
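GST-tagged DLK catalytic domain (aa 1-520, 5 nM) phosphorylates 40 nM HIS-tagged MKK4 K131M with 30 μM ATP, pH 7.5, 60 min at ambient temperature; compounds 1:3 serial from 20 uM. Phospho-MKK4 detected by TR-FRET (Eu-cryptate anti-phospho-MKK4/D2 anti-HIS) after 3 h.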
Background: In TR-FRET formats the signal depends on donor and acceptor labels being close together.
With `CC1(C)OCCn2c1nc1c(N3CC(O)C3)nc(-c3cnc4[nH]cnc4c3)nc12` [Example 109, 1-(2-(3H-imidazo[4,5-b]pyridin-6-yl)-6,6-dimethyl-8,9-dihydro-6H-[1,4]oxazino[4,3-e]purin-4-yl)azetidin-3-ol], the Ki came to 379 nM.

As to `CC1(C)OCCn2c1nc1c(N3CC(C#N)C3)nc(-c3cnc4[nH]cc(Cl)c4c3)nc12` [Example 110, 1-(2-(3-chloro-1H-pyrrolo[2,3-b]pyridin-5-yl)-6,6-dimethyl-8,9-dihydro-6H-[1,4]oxazino[4,3-e]purin-4-yl)azetidine-3-carbonitrile], the Ki was 1.25 nM.

In the case of `COC1CN(c2nc(-c3cnc4[nH]cnc4c3)nc3c2nc2n3CCOC2(C)C)C1` [Example 111, 2-(3H-imidazo[4,5-b]pyridin-6-yl)-4-(3-methoxyazetidin-1-yl)-6,6-dimethyl-8,9-dihydro-6H-[1,4]oxazino[4,3-e]purine], the Ki was determined as 885 nM.

For `CC1(C)OCCn2c1nc1c(N3CC(C#N)C3)nc(-c3cnc4[nH]cnc4c3)nc12` [Example 112, 1-(2-(3H-imidazo[4,5-b]pyridin-6-yl)-6,6-dimethyl-8,9-dihydro-6H-[1,4]oxazino[4,3-e]purin-4-yl)azetidine-3-carbonitrile], the Ki was found to be 458 nM.

Turning to `Cn1cc(-c2nc(-c3cnc(N)nc3)nc3c2nc2n3CCOC2(C)C)cn1` [Example 113, 5-(6,6-dimethyl-4-(1-methyl-1H-pyrazol-4-yl)-8,9-dihydro-6H-[1,4]oxazino[4,3-e]purin-2-yl)pyrimidin-2-amine], the Ki is 521 nM.

Consider `Nc1ncc(-c2nc(N3CC4CC3C4)c3nc4n(c3n2)CCOC42CCC2)cn1` [Example 114, 5-(4-(2-azabicyclo[2.1.1]hexan-2-yl)-8,9-dihydrospiro[[1,4]oxazino[4,3-e]purine-6,1′-cyclobutan]-2-yl)pyrimidin-2-amine], for which the Ki was determined as 52.1 nM.

As to `Nc1ncc(-c2nc(C3CC3)c3nc4n(c3n2)CCOC42CCC2)cn1` [Example 115, 5-(4-cyclopropyl-8,9-dihydrospiro[[1,4]oxazino[4,3-e]purine-6,1′-cyclobutan]-2-yl)pyrimidin-2-amine], the Ki worked out at 226 nM.

Regarding `CC1(C)OCCn2c1nc1c(N3CC4CC3C4)nc(-c3cnc(N)nc3)cc12` [Example 116, 5-(9-(2-azabicyclo[2.1.1]hexan-2-yl)-1,1-dimethyl-3,4-dihydro-1H-pyrido[3′,4′:4,5]imidazo[2,1-c][1,4]oxazin-7-yl)pyrimidin-2-amine], the Ki came out at 21.3 nM.

In the case of `CCN(c1nc(-c2cnc(N)nc2)nc2c1nc1n2CCOC1(C)C)C1CC1` [Example 117], the inhibitory constant (Ki) was determined as 0.39 nM.

Regarding `CC1(C)OCCn2c1nc1c(N3CC4CC3C4)nc(-c3cnc(N)cn3)cc12` [Example 118, 5-(9-(2-azabicyclo[2.1.1]hexan-2-yl)-1,1-dimethyl-3,4-dihydro-1H-pyrido[3′,4′:4,5]imidazo[2,1-c][1,4]oxazin-7-yl)pyrazin-2-amine], the Ki amounted to 1200 nM.

Consider `CC1(C)OCCn2c1nc1c(C3CC3)nc(-c3cnc(N)c(OC(F)F)c3)nc12` [Example 119, 5-(4-cyclopropyl-6,6-dimethyl-8,9-dihydro-6H-[1,4]oxazino[4,3-e]purin-2-yl)-3-(difluoromethoxy)pyridin-2-amine], for which the Ki was 34.3 nM.

On to `CC1(C)OCCn2c1nc1c(C3CC3)nc(-c3cnc(N)nc3)cc12` [Example 120], for which the Ki turned out to be 359 nM.

On to `Cc1c[nH]c2ncc(-c3nc(C4CC4)c4nc5n(c4n3)CCOC5(C)C)cc12` [Example 121], for which the Ki turned out to be 5.48 nM.

As to `CC1(C)OCCn2c1nc1c(C3CC3)nc(-c3cnc(N)nc3)nc12` [Example 122], the Ki worked out at 307 nM.

On to `CC1(C)OCCn2c1nc1c(NC3CCCC3)nc(-c3cnc(N)nc3)nc12` [Example 123, 2-(2-aminopyrimidin-5-yl)-N-cyclopentyl-6,6-dimethyl-8,9-dihydro-6H-[1,4]oxazino[4,3-e]purin-4-amine], for which the Ki was found to be 60.1 nM.

Consider `CC1(C)OCCn2c1nc1c(NC3CCC3)nc(-c3cnc(N)nc3)nc12` [Example 124], for which the Ki turned out to be 73.9 nM.

Take `CC1(C)OCCn2c1nc1c(C3CC3)nc(-c3cnc4c(c3)CCN4)nc12` [Example 125, 4-cyclopropyl-2-(2,3-dihydro-1H-pyrrolo[2,3-b]pyridin-5-yl)-6,6-dimethyl-8,9-dihydro-6H-[1,4]oxazino[4,3-e]purine]: the Ki stood at 626 nM.

With `CC1(C)OCCn2c1nc1c(C3CC3)nc(-c3cnc(N)c(C#N)c3)nc12` [Example 126, 2-amino-5-(4-cyclopropyl-6,6-dimethyl-8,9-dihydro-6H-[1,4]oxazino[4,3-e]purin-2-yl)nicotinonitrile], the Ki stood at 264 nM.

With `CC1(C)OCCn2c1nc1c(C3CC3)nc(-c3cnc(N)c4nc[nH]c34)nc12` [Example 127, 7-(4-cyclopropyl-6,6-dimethyl-8,9-dihydro-6H-[1,4]oxazino[4,3-e]purin-2-yl)-1H-imidazo[4,5-c]pyridin-4-amine], the Ki amounted to 150 nM.

Consider `CN(C)c1nc(-c2cnc3[nH]cc(C#N)c3c2)nc2c1nc1n2CCCOC1` [Example 128, 5-(4-(dimethylamino)-6,8,9,10-tetrahydro-[1,4]oxazepino[4,3-e]purin-2-yl)-1H-pyrrolo[2,3-b]pyridine-3-carbonitrile], for which the Ki was 17.9 nM.

For `CN(C)c1nc(-c2cnc3[nH]cc(C(F)(F)F)c3c2)nc2c1nc1n2CCCOC1` [Example 129, N,N-dimethyl-2-(3-(trifluoromethyl)-1H-pyrrolo[2,3-b]pyridin-5-yl)-6,8,9,10-tetrahydro-[1,4]oxazepino[4,3-e]purin-4-amine], the Ki was found to be 1.64 nM.

For `COC1CN(c2nc(-c3cnc4[nH]cc(C(F)(F)F)c4c3)nc3c2nc2n3CCOCC2)C1` [Example 131, 4-(3-methoxyazetidin-1-yl)-2-(3-(trifluoromethyl)-1H-pyrrolo[2,3-b]pyridin-5-yl)-6,7,9,10-tetrahydro-[1,4]oxazepino[4,5-e]purine], the Ki was 60.7 nM.

As for `Nc1ncc(-c2nc(N3CC4CC3C4)c3nc4n(c3n2)CCCOC4)cn1` [Example 132, 5-(4-(2-azabicyclo[2.1.1]hexan-2-yl)-6,8,9,10-tetrahydro-[1,4]oxazepino[4,3-e]purin-2-yl)pyrimidin-2-amine], the Ki was 281 nM.

On to `Nc1ncc(-c2nc(N3CC4CC3C4)c3nc4n(c3n2)CCOCC4)cn1` [Example 133, 5-(4-(2-azabicyclo[2.1.1]hexan-2-yl)-6,7,9,10-tetrahydro-[1,4]oxazepino[4,5-e]purin-2-yl)pyrimidin-2-amine], for which the Ki turned out to be 447 nM.

`CC1(C)OCCCn2c1nc1c(N3CCCC3)nc(-c3cnc(N)nc3)nc12` [Example 134, 5-(6,6-dimethyl-4-(pyrrolidin-1-yl)-6,8,9,10-tetrahydro-[1,4]oxazepino[4,3-e]purin-2-yl)pyrimidin-2-amine]: the Ki turned out to be 210 nM.

As for `Nc1ncc(-c2nc(N3CC4CC3C4)c3nc4n(c3n2)CCCOC4)cc1OC(F)F` [Example 135, 5-(4-(2-azabicyclo[2.1.1]hexan-2-yl)-6,8,9,10-tetrahydro-[1,4]oxazepino[4,3-e]purin-2-yl)-3-(difluoromethoxy)pyridin-2-amine], the Ki is 30.8 nM.

In the case of `COC1CN(c2nc(-c3cnc(N)c(OC(F)F)c3)nc3c2nc2n3CCCOC2)C1` [Example 136, 3-(difluoromethoxy)-5-(4-(3-methoxyazetidin-1-yl)-6,8,9,10-tetrahydro-[1,4]oxazepino[4,3-e]purin-2-yl)pyridin-2-amine], the Ki is 687 nM.

For the compound `CC1(C)OCCCn2c1nc1c(N3CC4CC3C4)nc(-c3cnc(N)nc3)nc12` [Example 137, 5-(4-(2-azabicyclo[2.1.1]hexan-2-yl)-6,6-dimethyl-6,8,9,10-tetrahydro-[1,4]oxazepino[4,3-e]purin-2-yl)pyrimidin-2-amine], the Ki was determined as 177 nM.

`CC1(C)OCCn2c1nc1c(N3CC4CC3C4)nc(-c3cnc(N)c(C#N)c3)cc12` [Example 144]: the Ki stood at 2.23 nM.

Consider `COC1CN(c2nc(-c3cnc4[nH]cc(C(F)(F)F)c4c3)nc3c2nc2n3CCCOC2)C1` [Example 145], for which the Ki amounted to 6.49 nM.

As to `CC1(C)OCCn2c1nc1c(N3CC4CC3C4)nc(-c3cnc4[nH]cnc4c3)nc12` [Example 146], the Ki came out at 32.2 nM.

Consider `CC1(C)OCCn2c1nc1c(N3CC4CCC3C4)nc(-c3cnc4[nH]cnc4c3)nc12` (stereo not shown) [Example 147], for which the Ki was 39.5 nM.

On to `CC1(C)OCCn2c1nc1c(C3CC3)nc(-c3cnc(N)c(OC(F)F)c3)cc12` [Example 148], for which the Ki was determined as 56.9 nM.

Turning to `COC1CN(c2nc(-c3cnc(N)c(OC(F)F)c3)nc3c2nc2n3CCOC2(C)C)C1` [Example 149], the Ki came out at 73.7 nM.

Turning to `CC1(C)OCCn2c1nc1c(N3CC4CC3C4)nc(-c3cnc(N)c(C(F)(F)F)c3)nc12` [Example 150], the Ki was 112 nM.

Take `C[C@H]1Cn2c(nc3c(N4CC5CC4C5)nc(-c4cnc(N)nc4)nc32)[C@@H](C)O1` [Example 151]: the Ki stood at 120 nM.

As to `CC1(C)OCCn2c1nc1c(N3CC(C#N)C3)nc(-c3cnc4[nH]cc(F)c4c3)nc12` [Example 152], the Ki worked out at 183 nM.

`C[C@@H]1O[C@@H](C)Cn2c1nc1c(N3CC4CC3C4)nc(-c3cnc(N)nc3)nc12` [Example 153]: the Ki was 261 nM.

Take `CC(Oc1nc(-c2cnc(N)nc2)nc2c1nc1n2CCOC1(C)C)C1CC1` (stereo not shown) [Example 155]: the Ki was 1200 nM.

For `CC1(C)OCCn2c1nc1c(N3CCC4(CCCO4)C3)nc(-c3cnc(N)nc3)nc12` (stereo not shown) [Example 156], the Ki was 1300 nM.
